The data set can be described thus: Determination of maximum tolerated dose (MTD), highest oral dose without hypercalcemia (serum calcium). The note with it: mouse, in vivo, po; eight week-old female C57BL/6 mice, p.o. daily for four days in miglyol; highest dose without hypercalcemia (serum calcium >10.7 mg/dl) on day five; read-out: MTD (mice). It counts as in vivo. Here is the method: The maximum tolerated dose of the vitamin D3 compounds of the invention were determined in eight week-old female C57BL/6 mice (3 mice/group) dosed orally (0.1 ml/mouse) with various concentrations of Vitamin D3 analogs daily for four days. Analogs were formulated in miglyol for a final concentration of 10, 30, 100 and 300 μg/kg when given at 0.1 ml/mouse p.o. daily. Blood for serum calcium assay was drawn by tail bleed on day five, the final day of the study. Serum calcium levels were determined using a colorimetric assay (Sigma Diagnostics, procedure no. 597). The highest dose of analog tolerated without inducing hypercalcemia (serum calcium >10.7 mg/dl) was taken as the maximum tolerated does (MTD).
Turning to `[2H]C([2H])([2H])C(O)(CCCC(C)(CC#CC(O)(C(F)(F)F)C(F)(F)F)[C@H]1CCC2/C(=C/C=C3/C[C@@H](O)C[C@H](O)C3=C)CCC[C@@]21C)C([2H])([2H])[2H]` (stereo partly drawn) [Compound 22, 1,25-Dihydroxy-20S-20-(4-hydroxy-5,5,5-trideutero-4-trideuteromethyl-pentyl)-23-yne-26,27-hexafluorocholecalciferol], the MTD – broadly, the highest dose tested that stayed within the study's limit of toxicity – at 4 days is 0.3 µg/kg.
With `[2H]C([2H])([2H])C(O)(CCCC(C)(CC#CC(O)(C(F)(F)F)C(F)(F)F)[C@H]1CCC2/C(=C/C=C3C[C@@H](O)C[C@H](O)C3)CCC[C@@]21C)C([2H])([2H])[2H]` (stereo partly drawn) [Compound 23, 1,25-Dihydroxy-20S-20-(4-hydroxy-5,5,5-trideutero-4-trideuteromethyl-pentyl)-23-yne-26,27-hexafluoro-19-nor-cholecalciferol] the figure was 1 µg/kg.
As for `[2H]C([2H])([2H])C(O)(CCC[C@](C)(CC#CC(O)(C(F)(F)F)C(F)(F)F)[C@H]1CCC2/C(=C/C=C3C[C@@H](O)C[C@H](O)C3)CCC[C@@]21C)C([2H])([2H])[2H]` (stereo partly drawn) [Compound 32, 1,25-Dihydroxy-20R-20-(4-hydroxy-5,5,5-trideutero-4-trideuteromethyl-pentyl)-23-yne-26,27-hexafluoro-19-nor-cholecalciferol], the MTD at 4 days is 0.3 µg/kg.
With `[2H]C([2H])([2H])C(O)(CCC[C@](C)(C/C=C/C(O)(C(F)(F)F)C(F)(F)F)[C@H]1CCC2/C(=C/C=C3/C[C@@H](O)C[C@H](O)C3=C)CCC[C@@]21C)C([2H])([2H])[2H]` (stereo partly drawn) [Compound 28, 1,25-Dihydroxy-20R-20-(4-hydroxy-5,5,5-trideutero-4-trideuteromethyl-pentyl)-23E-ene-26,27-hexafluorocholecalciferol] the figure was 0.3 µg/kg; with `[2H]C([2H])([2H])C(O)(CCCC(C)(C/C=C/C(O)(C(F)(F)F)C(F)(F)F)[C@H]1CCC2/C(=C/C=C3/C[C@@H](O)C[C@H](O)C3=C)CCC[C@@]21C)C([2H])([2H])[2H]` (stereo partly drawn) [Compound 19, 1,25-Dihydroxy-20S-20-(4-hydroxy-5,5,5-trideutero-4-trideuteromethyl-pentyl)-23E-ene-26,27-hexafluorocholecalciferol], 0.1 µg/kg; with `[2H]C([2H])([2H])C(O)(CCC[C@](C)(C/C=C\C(O)(C(F)(F)F)C(F)(F)F)[C@H]1CCC2/C(=C/C=C3C[C@@H](O)C[C@H](O)C3)CCC[C@@]21C)C([2H])([2H])[2H]` (stereo partly drawn) [Compound 26, 1,25-Dihydroxy-20R-20-(4-hydroxy-5,5,5-trideutero-4-trideuteromethyl-pentyl)-23Z-ene-26,27-hexafluoro-19-nor-cholecalciferol], 0.3 µg/kg.
Take `[2H]C([2H])([2H])C(O)(CCC[C@](C)(C/C=C/C(O)(C(F)(F)F)C(F)(F)F)[C@H]1CCC2/C(=C/C=C3C[C@@H](O)C[C@H](O)C3)CCC[C@@]21C)C([2H])([2H])[2H]` (stereo partly drawn) [Compound 29, 1,25-Dihydroxy-20R-20-(4-hydroxy-5,5,5-trideutero-4-trideuteromethyl-pentyl)-23E-ene-26,27-hexafluoro-19-nor-cholecalciferol]: the MTD at 4 days is 0.1 µg/kg.
With `[2H]C([2H])([2H])C(O)(CCC[C@](C)(CC#CC(O)(C(F)(F)F)C(F)(F)F)[C@H]1CCC2/C(=C/C=C3/C[C@@H](O)C[C@H](O)C3=C)CCC[C@@]21C)C([2H])([2H])[2H]` (stereo partly drawn) [Compound 31, 1,25-Dihydroxy-20R-20-(4-hydroxy-5,5,5-trideutero-4-trideuteromethyl-pentyl)-23-yne-26,27-hexafluorocholecalciferol], the MTD at 4 days was 0.3 µg/kg.
Turning to `[2H]C([2H])([2H])C(O)(CCCC(C)(C/C=C/C(O)(C(F)(F)F)C(F)(F)F)[C@H]1CCC2/C(=C/C=C3C[C@@H](O)C[C@H](O)C3)CCC[C@@]21C)C([2H])([2H])[2H]` (stereo partly drawn) [Compound 20, 1,25-Dihydroxy-20S-20-(4-hydroxy-5,5,5-trideutero-4-trideuteromethyl-pentyl)-23E-ene-26,27-hexafluoro-19-nor-cholecalciferol], the maximum tolerated dose (MTD) at 4 days was 0.1 µg/kg.

The values are drawn from patent US20090099140A1, “20-Alkyl, Gemini Vitamin D3 Compounds and Methods of Use Thereof” (BioXell S.p.A., priority 2005, published 2009).
